Results taken from PubChem BioAssay AID1918939 (Molecular Pharmacology Branch, DTP, NCI, 2023).

Tested on: 653999-131-R-J2-PDC complex spheroid viability
Assay: Anticancer human tumor 653999-131-R-J2-PDC patient-derived lung adenocarcinoma cell line growth inhibition
Conditions: for IC50: curve of first compound; for viability, T/C: stronger effect = lower value
How it was run: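 Drug combinations with the LSD1 inhibitor iadademstat tested on tumor cells co-cultured as spheroids with endothelial cells and mesenchymal stem cells. Concentrations descended in half-log increments from clinical Cmax or 10 microM.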

[1] = second compound 0.1 µM, first compound 0.00316 µM
[2] = second compound 0.1 µM, first compound 0.01 µM
[3] = second compound 0.1 µM, first compound 0.0316 µM
[4] = second compound 0.1 µM, first compound 0.1 µM
[5] = second compound 0.316 µM, first compound 0.00316 µM
[6] = second compound 0.316 µM, first compound 0.01 µM
[7] = second compound 0.316 µM, first compound 0.0316 µM
[8] = second compound 0.316 µM, first compound 0.1 µM
[9] = second compound 1 µM, first compound 0.00316 µM
[10] = second compound 1 µM, first compound 0.01 µM
[11] = second compound 1 µM, first compound 0.0316 µM
[12] = second compound 1 µM, first compound 0.1 µM
[13] = second compound 3.16 µM, first compound 0.00316 µM
[14] = second compound 3.16 µM, first compound 0.01 µM
[15] = second compound 3.16 µM, first compound 0.0316 µM
[16] = second compound 3.16 µM, first compound 0.1 µM
[17] = second compound 10 µM, first compound 0.00316 µM
[18] = second compound 10 µM, first compound 0.01 µM
[19] = second compound 10 µM, first compound 0.0316 µM
[20] = second compound 10 µM, first compound 0.1 µM
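Note: spheroids exposed to agents for seven days before readout.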

Compound COc1cc(Nc2ncc3c(n2)-c2ccc(Cl)cc2C(c2c(F)cccc2OC)=NC3)ccc1C(=O)O + NC1CC1c1ccc(-c2cccc(O)c2)cc1 has an IC50 (second compound 0.1 µM) greater than 1000 nM, an IC50 (second compound 0.316 µM) greater than 1000 nM and an IC50 (second compound 1 µM) greater than 1000 nM. It also gave an IC50 (second compound 3.16 µM) of 819 nM, an IC50 (second compound 10 µM) greater than 1000 nM and a viability, T/C [1] of 66.8%. The viability, T/C [2] was 75.8%, the viability, T/C [3] was 73.6% and the viability, T/C [4] was 62.1%. It also gave a viability, T/C (second compound 0.1 µM, first compound 0.316 µM) of 66.8%, a viability, T/C (second compound 0.1 µM, first compound 1 µM) of 64.8% and a viability, T/C [5] of 63.6%. It also gave a viability, T/C [6] of 70.6%, a viability, T/C [7] of 65.8% and a viability, T/C [8] of 57.2%. The viability, T/C (second compound 0.316 µM, first compound 0.316 µM) was 57.3%, the viability, T/C (second compound 0.316 µM, first compound 1 µM) was 53.9% and the viability, T/C [9] was 63.5%. The viability, T/C [10] was 70.8%, the viability, T/C [11] was 61.8% and the viability, T/C [12] was 59.8%. It also gave a viability, T/C (second compound 1 µM, first compound 0.316 µM) of 57.3%, a viability, T/C (second compound 1 µM, first compound 1 µM) of 53.7% and a viability, T/C [13] of 62.1%. It also gave a viability, T/C [14] of 58.9%, a viability, T/C [15] of 58% and a viability, T/C [16] of 54.7%. For the same compound, the viability, T/C (second compound 3.16 µM, first compound 0.316 µM) was 51.7%, the viability, T/C (second compound 3.16 µM, first compound 1 µM) was 49.6% and the viability, T/C [17] was 60.2%. For the same compound, the viability, T/C [18] was 66.3%, the viability, T/C [19] was 65.1% and the viability, T/C [20] was 55.5%. The viability, T/C (second compound 10 µM, first compound 0.316 µM) was 56.8% and the viability, T/C (second compound 10 µM, first compound 1 µM) was 53.5%.

Compound Cn1ncnc1C1c2n[nH]c(=O)c3cc(F)cc(c23)NC1c1ccc(F)cc1 (stereo not given) + NC1CC1c1ccc(-c2cccc(O)c2)cc1 has an IC50 (second compound 0.1 µM) greater than 100 nM, an IC50 (second compound 0.316 µM) greater than 100 nM and an IC50 (second compound 1 µM) greater than 100 nM. For the same compound, the IC50 (second compound 3.16 µM) was greater than 100 nM, the IC50 (second compound 10 µM) was greater than 100 nM and the viability, T/C (second compound 0.1 µM, first compound 0.000316 µM) was 90.3%. It also gave a viability, T/C (second compound 0.1 µM, first compound 0.001 µM) of 95.9%, a viability, T/C [1] of 95% and a viability, T/C [2] of 90.7%. It also gave a viability, T/C [3] of 84.6%, a viability, T/C [4] of 83.4% and a viability, T/C (second compound 0.316 µM, first compound 0.000316 µM) of 92.2%. The viability, T/C (second compound 0.316 µM, first compound 0.001 µM) was 96.2%, the viability, T/C [5] was 101% and the viability, T/C [6] was 91.4%. It also gave a viability, T/C [7] of 82.2%, a viability, T/C [8] of 80% and a viability, T/C (second compound 1 µM, first compound 0.000316 µM) of 90%. The viability, T/C (second compound 1 µM, first compound 0.001 µM) was 97.4%, the viability, T/C [9] was 99.8% and the viability, T/C [10] was 90.6%. For the same compound, the viability, T/C [11] was 75.9%, the viability, T/C [12] was 82.6% and the viability, T/C (second compound 3.16 µM, first compound 0.000316 µM) was 89.7%. For the same compound, the viability, T/C (second compound 3.16 µM, first compound 0.001 µM) was 94.4%, the viability, T/C [13] was 90.3% and the viability, T/C [14] was 85.1%. The viability, T/C [15] was 82.7%, the viability, T/C [16] was 80% and the viability, T/C (second compound 10 µM, first compound 0.000316 µM) was 85.5%. The viability, T/C (second compound 10 µM, first compound 0.001 µM) was 88.3%, the viability, T/C [17] was 94.8% and the viability, T/C [18] was 86.3%. For the same compound, the viability, T/C [19] was 82.5% and the viability, T/C [20] was 78.6%.

Work on NS(=O)(=O)OCC1CC(n2ccc3c(NC4CCc5ccccc54)ncnc32)CC1O (stereo not given) + NC1CC1c1ccc(-c2cccc(O)c2)cc1 yielded an IC50 (second compound 0.1 µM) greater than 3000 nM, an IC50 (second compound 0.316 µM) greater than 3000 nM and an IC50 (second compound 1 µM) greater than 3000 nM. It also gave an IC50 (second compound 3.16 µM) greater than 3000 nM, an IC50 (second compound 10 µM) greater than 3000 nM and a viability, T/C (second compound 0.1 µM, first compound 0.00949 µM) of 94.2%. For the same compound, the viability, T/C (second compound 0.1 µM, first compound 0.03 µM) was 97.9%, the viability, T/C (second compound 0.1 µM, first compound 0.0949 µM) was 107% and the viability, T/C (second compound 0.1 µM, first compound 0.3 µM) was 74.1%. The viability, T/C (second compound 0.1 µM, first compound 0.949 µM) was 64.9%, the viability, T/C (second compound 0.1 µM, first compound 3 µM) was 60% and the viability, T/C (second compound 0.316 µM, first compound 0.00949 µM) was 91.8%. For the same compound, the viability, T/C (second compound 0.316 µM, first compound 0.03 µM) was 95.7%, the viability, T/C (second compound 0.316 µM, first compound 0.0949 µM) was 118% and the viability, T/C (second compound 0.316 µM, first compound 0.3 µM) was 81.4%. It also gave a viability, T/C (second compound 0.316 µM, first compound 0.949 µM) of 66%, a viability, T/C (second compound 0.316 µM, first compound 3 µM) of 61.6% and a viability, T/C (second compound 1 µM, first compound 0.00949 µM) of 94.4%. For the same compound, the viability, T/C (second compound 1 µM, first compound 0.03 µM) was 96.4%, the viability, T/C (second compound 1 µM, first compound 0.0949 µM) was 113% and the viability, T/C (second compound 1 µM, first compound 0.3 µM) was 72.7%. It also gave a viability, T/C (second compound 1 µM, first compound 0.949 µM) of 64.5%, a viability, T/C (second compound 1 µM, first compound 3 µM) of 60.7% and a viability, T/C (second compound 3.16 µM, first compound 0.00949 µM) of 83.2%. It also gave a viability, T/C (second compound 3.16 µM, first compound 0.03 µM) of 102%, a viability, T/C (second compound 3.16 µM, first compound 0.0949 µM) of 132% and a viability, T/C (second compound 3.16 µM, first compound 0.3 µM) of 64.9%. For the same compound, the viability, T/C (second compound 3.16 µM, first compound 0.949 µM) was 64.7%, the viability, T/C (second compound 3.16 µM, first compound 3 µM) was 61.1% and the viability, T/C (second compound 10 µM, first compound 0.00949 µM) was 94.1%. It also gave a viability, T/C (second compound 10 µM, first compound 0.03 µM) of 105%, a viability, T/C (second compound 10 µM, first compound 0.0949 µM) of 132% and a viability, T/C (second compound 10 µM, first compound 0.3 µM) of 68.8%. The viability, T/C (second compound 10 µM, first compound 0.949 µM) was 61.8% and the viability, T/C (second compound 10 µM, first compound 3 µM) was 48.2%.
